Here are results for two molecules from patent publication US20250333733A1, “NOVEL TARGETS AGAINST OVARIAN CANCER” (UNIVERSITY OF PUERTO RICO, priority 2022, published 2025).

pIC50: −log10 of the molar value.

Data set [1] relates to SKOV3IP1. As to conditions: 72-hr incubation, Alamar Blue, read-out: IC50 cisplatin; cited from earlier work. On the technique in general: The colour change of resazurin is a common sign of viable cells or microbes.
The test system of data set [2] is OVCAR3CIS cells. Description: Cell viability, Alamar blue, siRNA alone or with cisplatin. It is filed as cell-based. As to conditions: CIS 2.5 μM, NC-siRNA-transfected OVCAR3CIS cells. The method, then: OVCAR3CIS cells (3.0×10^4 cells/mL) or SKOV3ip1CIS (3.0×10^4 cells/mL) were seeded into 12-well plates. […] The next day, 400 cells (OVCAR3CIS) or 1,000 cells (SKOV3ip1CIS) were seeded into 6-well plates and incubated for seven days, fixed and stained with 0.5% crystal violet in methanol. Colonies of at least 50 cells were counted using a light microscope (CKX41: Olympus, Center Valley, PA, USA) with a total magnification of 40x. For cell viability assays, OVCAR3 and OVCAR3CIS (3.0×10^4 cells/mL) or SKOV3ip1and SKOV3ip1CIS (3.5×10^4 cells/mL) were seeded into 96-well plates, and 24 hours later, siRNA transfection was performed as described above. The next day, the transfection mix was replaced with cisplatin (CIS) (2.5 uM final concentration dissolved in regular cell culture media) and after forty-eight hours, the medium was removed, and Alamar blue dye (Invitrogen, Thermo Fisher Scientific, Eugene, OR, USA) was added following the manufacturer's instructions. Optical density (OD) was measured, and percentages of cell viability were calculated after blank OD subtraction. Untreated cells were assessed as 100% cell viability.

The subject of data set [3] is SKOV3IP1CIS. As to conditions: 72-hr incubation, Alamar Blue, read-out: IC50 cisplatin; cited from earlier work.
Data set [4] relates to OVCAR3CIS. As to conditions: 72-hr incubation, Alamar Blue, read-out: IC50 cisplatin; cited from earlier work.
Data set [5] deals with OVCAR3. As to conditions: 72-hr incubation, Alamar Blue, read-out: IC50 cisplatin; cited from earlier work.
The test system of data set [6] is A2780CIS. As to conditions: 72-hr incubation, Alamar Blue, read-out: IC50 cisplatin; cited from earlier work.
Data set [7] relates to OV90CIS. As to conditions: 72-hr incubation, Alamar Blue, read-out: IC50 cisplatin; cited from earlier work.
Data set [8] relates to A2780CP20. The following applies: 72-hr incubation, Alamar Blue, read-out: IC50 cisplatin; cited from earlier work.
The subject of data set [9] is OV90. As to conditions: 72-hr incubation, Alamar Blue, read-out: IC50 cisplatin; cited from earlier work.
The test system of data set [10] is CASC10. The data set can be described thus: RT-qPCR of CASC10 expression after siRNA transfection in OVCAR3CIS cells. It is filed as cell-based. As to conditions: vs NC-siRNA. The method, then:
(§1) SiRNA ON-TARGET plus SMARTpool (a mixture of 4 siRNA as a single tube) and a negative control siRNA (NC-siRNA) (Sigma-Aldrich) were used for transfection studies. CASC10, was targeted by using two siRNAs targeting different regions of the CASC10 RNA (e.g., CASC10-siRNA (1) and CASC10-siRNA (2)). OVCAR3CIS or SKOV3ip1CIS cells were seeded into 12-well plates at 3.0×10^4 cells/mL. The next day, siRNAs were mixed with HiPerfect transfection reagent (Qiagen, Valencia, CA) at a 1:2 ratio (SIRNA: HiPerfect) in serum and antibiotic-free Opti-MEM medium (Gibco) and added to the cells. After twenty-four hours the media was replaced by regular culture media, and cells were cultured and used for further experiments. To assess siRNA transfection efficiency, cells were collected 24 hours after siRNA transfection.
(§2) A custom-made 384-well plate containing pre-designed forward and reverse primers was purchased from Bio-Rad (CA, USA). Total RNA was isolated from OVCAR3 and OVCAR3CIS cells using the GenElute Mammalian Total RNA Mini Kit (Millipore-Sigma, MO, USA) following the manufacturer's instructions. […] Fold-changes and cycle threshold (Ct) values were calculated by the instrument's internal software relative to OVCAR3 cells and normalized to B-actin along with controls for gDNA, PCR reaction, RT reaction, and RNA quality.

Data set [11] has as its system OVCAR3CIS cells. The data set can be described thus: Matrigel transwell invasion assay. It is filed as cell-based. The following applies: vs NC-siRNA. The protocol: (§3) Cell invasion was measured using the Matrigel transwell method. OVCAR3CIS (3.0×10^4 cells/mL) or SKOVip1CIS (3.5×10^4 cells/mL) were seeded into 10 cm Petri dishes and transfected with siRNAs. Twenty-four hours later, serum-free matrigel (BD Biosciences CA, USA) was added onto the upper chambers of 24-well plates and incubated at 37° C. for polymerization. Transfected cells were collected and resuspended in serum-free and re-seeded onto the Matrigel-coated chambers. Medium containing 10% FBS was added to the lower area of the wells, and the plates incubated for 48 hours at 37° C. The medium was removed, and cells that invaded through the matrigel fixed and stained using ProtocolHema 3 Stain Set (Fisher Scientific MI, USA). Invaded cells were microscopically counted using a digital camera to capture images at a 20× resolution. The percentage of cell invasion was calculated using the NC-SIRNA condition as 100% cell invasion.

For data set [12], the system named is SKOV3IP1CIS. Description: Matrigel transwell invasion assay. It is filed as cell-based, human. The method, then:
as §3

Data set [13] has as its system CASC10. The data set can be described thus: RT-qPCR of CASC10 expression after siRNA transfection in SKOV3ip1 cells. It is filed as cell-based, human. The following applies: SKOV3ip1 cells as printed. The method, then: as §1, §2
In general terms: Quantitative PCR measures a nucleic acid by following its amplification.

The test system of data set [14] is SKOV3ip1CIS cells. The data set can be described thus: Colony formation assay after siRNA transfection. It is filed as cell-based, human. As to conditions: SKOV3ip1CIS (FIG. 8B). The method, then:
as §1
OVCAR3CIS cells (3.0×10^4 cells/mL) or SKOV3ip1CIS (3.0×10^4 cells/mL) were seeded into 12-well plates. Twenty-four hours later, cells were transfected with 100 nM (final concentration) of each siRNA. […] Colonies of at least 50 cells were counted using a light microscope (CKX41: Olympus, Center Valley, PA, USA) with a total magnification of 40x. […] Optical density (OD) was measured, and percentages of cell viability were calculated after blank OD subtraction. Untreated cells were assessed as 100% cell viability.

In data set [15] the test system is OVCAR3CIS cells. Description: Colony formation assay after siRNA transfection. The following applies: single siRNA, vs NC-siRNA. It is filed as cell-based. The protocol: as §1
OVCAR3CIS cells (3.0×10^4 cells/mL) or SKOV3ip1CIS (3.0×10^4 cells/mL) were seeded into 12-well plates. Twenty-four hours later, cells were transfected with 100 nM (final concentration) of each siRNA. […] Colonies of at least 50 cells were counted using a light microscope (CKX41: Olympus, Center Valley, PA, USA) with a total magnification of 40x. […] Optical density (OD) was measured, and percentages of cell viability were calculated after blank OD subtraction. Untreated cells were assessed as 100% cell viability. […]

On to `N.N.[Cl][Pt][Cl]` [cisplatin], for which the pIC50 in [1] is 5.41; in data set [3], 5.14; in data set [4], 5.12; in [5] it was 5.55; in [6], 5.37; in data set [7], 5.11. The values for the pIC50 in [8] and in data set [9] were 4.52 to 4.70 and 5.46, respectively. In addition, the cell viability result in data set [2] is “reduced the cell viability”.
Take “CASC10-siRNA (1): siRNA targeting CASC10 RNA, SEQ ID NO 1 and 2: 5′ GCUAUCUGCUUGAUCCCUU(dT)(dT) 3′ / 5′ AAGGGAUCAAGCAGAUAGO(dT)(dT) 3′ (chain 1 GCUAUCUGCUUGAUCCCUUNN; chain 2 AAGGGAUCAAGCAGAUAGCNN; 3' dTdT overhangs, chemistry not fully specified)”: the “decrease of CASC10 expression” value in [10] is 47%. Moreover, the reduction of invasiveness in data set [11] was determined as 42%. Also, the “reduction of invasion ability” value in data set [12] worked out at 36%. Moreover, in data set [13], the “decrease of CASC10 relative expression” value came to 70%. Moreover, the “reduction in the number of colonies” value in [14] was 81%; in data set [15], 42%.

What is called pIC50 is −log10 of the IC50, conventionally taken in molar units.
